Converted amounts (≈) assume the structure as drawn.
Columns and labels:
human serum albumin = human serum albumin (Homo sapiens, UniProt P02768); test: Human serum albumin binding
Description: TABLE 1 Pharmacokinetic parameters of PROTAC 2. | column: HSA binding ^c

[1] = Solubility in phosphate buffer solution; type: physicochemical; conditions: aqueous buffer; phosphate buffer solution (PBS, pH = 7.5)
[2] = molecular target: T1, ternary complex between progerin, compound 2 and CRBN (Mus musculus, UniProt P48678+Q8C7D2, DEL608-657); test: Co-immunoprecipitation of ternary complex (anti-CRBN IP, anti-progerin blot); type: binding; conditions: 5 µM, 6 h, Lmna^G609G/G609G fibroblasts
T1 construct: endogenous in cells; host or cells: Lmna G609G/G609G mouse fibroblasts
Description: (A) Input IP .LM123L T-!=> V,!=>
MW Veh Cpd 2 Cpd 2 Veh !!!!!"#$$#B -45665 T4--8 -4;?,;
Progerin !!!!!E#)*+,- ,V4:-Ise::::: :etpoooomX,?4?V:enst9mmqo,848; !?#$B?CDEFCBG+I-+G.BLG+ […]
!!!!!*+,- 84;66L<-,VI9e::::::esnnsmqmXV4-;VL<-,?:estm9XpoX?4T-?L<-,8 FFFFF0BNNB$ :em9Xn […]
IgG heavy chain Iqep:m:p ne:qmppo:m :esmpqtmpn FFFFFSB#T89:I9em:m […]
50- Iqe9mt:: :eoX9ppnnm :eoqpq9s9p X9YF8=F>.-B2?E+FE??+E?@BBCA
FFFFF0BNNB$ rrrFNBF:eqoqs
Cpd 2 Veh FFFFFSB#T89:rrr […]
Vehicle .LM123L T-!=>(%C" V,!=> […]
50- !!!!!C#' -4TT8VLamin C -4T:T; (%$$-4-:?5T '()*+
!!!!!E#)*+,- ,V4:-β-Actin ,?4?V ,848; D(%
37- !!!!!*+,- 84;66L<-,V V4-;VL<-,? ?4T-?L<-,8 ,-)*+ […]
Abundance Ratio (log2): Ve h / Cpd 2
Supporting Figure S2. Ternary complex formation, progerin engagement and global selectivity of compound 2. (A) Progeroid […]/G609G fibroblasts treated with vehicle (0.1% DMSO) or compound 2 (5 µM) were subjected to immunoprecipitation with an anti-CRBN antibody and then immunoblotted with an anti-progerin antibody. Bar graph represents mean±sem of 2 independent experiments. (B) Representative progerin immunoblotting of the soluble fraction of LmnaG609G/G609G cell homogenates treated with […]
Cells were harvested by trypsin, centrifuged and washed with PBS. […] The mixture was then allowed to incubate for 30min at 37 °C in the dark and samples were finally analysed by FACScalibur (Becton Dickinson) flow cytometer […]

Chain of human serum albumin (P02768 25-609): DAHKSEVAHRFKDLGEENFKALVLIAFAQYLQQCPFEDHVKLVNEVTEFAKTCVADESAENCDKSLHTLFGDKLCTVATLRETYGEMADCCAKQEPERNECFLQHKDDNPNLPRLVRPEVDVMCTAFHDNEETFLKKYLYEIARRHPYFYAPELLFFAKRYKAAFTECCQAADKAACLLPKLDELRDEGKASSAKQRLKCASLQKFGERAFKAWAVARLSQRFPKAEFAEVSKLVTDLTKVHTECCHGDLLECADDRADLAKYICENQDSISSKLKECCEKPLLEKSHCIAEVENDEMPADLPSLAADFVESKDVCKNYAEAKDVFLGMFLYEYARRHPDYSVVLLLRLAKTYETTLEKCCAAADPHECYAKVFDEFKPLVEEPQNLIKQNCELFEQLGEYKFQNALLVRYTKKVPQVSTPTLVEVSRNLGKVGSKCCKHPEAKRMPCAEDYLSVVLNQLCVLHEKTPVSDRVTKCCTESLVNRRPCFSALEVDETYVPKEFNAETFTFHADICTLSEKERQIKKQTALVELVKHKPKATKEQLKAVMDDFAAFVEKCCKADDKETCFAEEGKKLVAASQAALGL
T1 sequence (P48678 with tags, fused parts or gaps DEL608-657 limits assumed): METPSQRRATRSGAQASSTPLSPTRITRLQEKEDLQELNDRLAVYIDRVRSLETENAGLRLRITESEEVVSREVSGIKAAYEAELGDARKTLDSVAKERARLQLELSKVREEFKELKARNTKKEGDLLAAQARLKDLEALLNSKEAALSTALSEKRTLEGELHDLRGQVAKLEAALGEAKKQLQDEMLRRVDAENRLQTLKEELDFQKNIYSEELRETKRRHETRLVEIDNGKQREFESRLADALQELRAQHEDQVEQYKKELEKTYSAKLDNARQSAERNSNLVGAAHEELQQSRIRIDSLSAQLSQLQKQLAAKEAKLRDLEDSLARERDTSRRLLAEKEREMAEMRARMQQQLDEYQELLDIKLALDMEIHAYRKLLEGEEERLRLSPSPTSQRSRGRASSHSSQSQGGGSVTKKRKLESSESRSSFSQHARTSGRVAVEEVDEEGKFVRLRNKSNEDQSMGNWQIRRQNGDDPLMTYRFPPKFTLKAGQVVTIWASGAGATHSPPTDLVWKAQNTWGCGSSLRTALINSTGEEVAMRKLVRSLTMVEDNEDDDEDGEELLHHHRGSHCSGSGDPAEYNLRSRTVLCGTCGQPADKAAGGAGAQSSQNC
T1 sequence (Q8C7D2 whole entry, stated change not applied): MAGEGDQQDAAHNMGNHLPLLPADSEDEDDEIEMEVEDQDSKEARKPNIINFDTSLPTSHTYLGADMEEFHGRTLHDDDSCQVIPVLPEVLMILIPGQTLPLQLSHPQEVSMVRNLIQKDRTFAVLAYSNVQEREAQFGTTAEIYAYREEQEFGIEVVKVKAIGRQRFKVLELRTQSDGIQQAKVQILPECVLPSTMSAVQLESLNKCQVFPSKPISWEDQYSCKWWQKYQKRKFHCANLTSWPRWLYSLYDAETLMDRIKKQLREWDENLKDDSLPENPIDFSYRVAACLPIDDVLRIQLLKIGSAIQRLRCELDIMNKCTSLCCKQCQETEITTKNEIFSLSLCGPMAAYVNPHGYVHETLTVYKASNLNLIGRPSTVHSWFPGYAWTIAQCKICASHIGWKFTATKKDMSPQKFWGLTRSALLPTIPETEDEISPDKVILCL
T1 sequence (Q3U1J4 whole entry partner): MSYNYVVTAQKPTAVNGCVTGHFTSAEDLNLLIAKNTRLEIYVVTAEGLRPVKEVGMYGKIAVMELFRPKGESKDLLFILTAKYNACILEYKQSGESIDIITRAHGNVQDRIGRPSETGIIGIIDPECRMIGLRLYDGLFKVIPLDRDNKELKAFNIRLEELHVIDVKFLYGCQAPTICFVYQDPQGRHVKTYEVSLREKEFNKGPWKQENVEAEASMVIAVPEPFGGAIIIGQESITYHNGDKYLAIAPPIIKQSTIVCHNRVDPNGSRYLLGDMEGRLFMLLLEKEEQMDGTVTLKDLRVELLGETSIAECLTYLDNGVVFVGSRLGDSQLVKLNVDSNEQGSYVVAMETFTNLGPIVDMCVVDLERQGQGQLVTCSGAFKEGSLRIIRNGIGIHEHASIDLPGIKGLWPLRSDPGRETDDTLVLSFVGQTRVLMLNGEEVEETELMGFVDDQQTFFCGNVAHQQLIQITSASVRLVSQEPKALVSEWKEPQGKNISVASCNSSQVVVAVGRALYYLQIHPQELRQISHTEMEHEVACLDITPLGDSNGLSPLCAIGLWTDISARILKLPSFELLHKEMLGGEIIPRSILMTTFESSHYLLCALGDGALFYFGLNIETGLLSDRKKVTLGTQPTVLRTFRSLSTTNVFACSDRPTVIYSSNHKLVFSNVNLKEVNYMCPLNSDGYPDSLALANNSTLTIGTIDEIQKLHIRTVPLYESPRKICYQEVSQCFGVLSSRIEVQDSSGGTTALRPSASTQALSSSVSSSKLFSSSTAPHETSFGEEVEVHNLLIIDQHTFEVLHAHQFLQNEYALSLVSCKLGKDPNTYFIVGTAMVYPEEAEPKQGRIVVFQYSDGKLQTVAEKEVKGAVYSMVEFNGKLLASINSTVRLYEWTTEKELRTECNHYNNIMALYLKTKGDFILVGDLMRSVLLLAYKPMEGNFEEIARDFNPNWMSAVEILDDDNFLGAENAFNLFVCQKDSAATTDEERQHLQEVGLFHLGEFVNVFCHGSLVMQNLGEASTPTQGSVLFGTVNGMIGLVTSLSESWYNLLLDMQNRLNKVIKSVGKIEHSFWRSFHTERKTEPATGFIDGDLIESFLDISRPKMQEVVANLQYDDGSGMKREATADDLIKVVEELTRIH

SMILES: CC1(C)Oc2cc3oc(=O)ccc3cc2C[C@@H]1OC(=O)CCCCCNc1cccc2c1C(=O)N(C1CCC(=O)NC1=O)C2=O (stereo partly shown) [compound 2]
- HSA binding (human serum albumin): 99%
- Kd (human serum albumin; read-out: HSA binding K D): 5.8 µM
- solubility [1]: 0.5 µM (≈ 0.308 µg/mL)
- formation of ternary complex with progerin and CRBN by immunoprecipitation [2]: confirmed the formation of the ternary complex

From PMC13252604, “First Generation Proteolysis Targeting Chimeras (PROTACs) for the Treatment of Progeria” (Advanced Science, 2026)
